Assay results as given in patent publication US4328231A, “Method of treating psoriasis” (Richter Gedeon Vegyeszeti Gyar Rt., priority 1979, dated 1982).
Structures can show the parent of a compound that is named as a salt.

Experiments:
psoriasis = conditions: Voorhees et al.; cited from earlier work
phosphodiesterase [1] = conditions: Voorhees et al.; cited from earlier work
phosphodiesterase [2] = test: Inhibition of phosphodiesterase isolated from rat brain tissue (radioisotopic technique, tritium-labelled c-AMP); format: biochemical; conditions: 20 minutes incubation, % of control
phosphodiesterase [3] = test: as above; format: biochemical; conditions: 20 minutes incubation, % of control; remark: listed apart in the source
Method: Our model experiments were carried out by means of phosphodiesterase isolated from animal tissues. More particularly, the enzyme was isolated from the brain tissue of rats following the method of J. Schroder and H. V. Richenberg [Biochem. Biophys. Acta 302, 50 (1973)], whereupon the isolated phosphodiesterase was purified by the method of J. G. Hardman and E. W. Sutherland [J. Biol. Chem. 240, 3704 (1965)]. Finally, the activity of the purified enzyme was measured by the radioisotopic technique of G. Poch, in the presence of an excess amount of tritium-labelled c-AMP, in an incubator, initially without the inhibiting system and thereafter in the presence of a compound of the formula (I) as an inhibitor. The enzyme activity was determined after an incubation time of 20 minutes [N. S. Arch. Pharmacol. 268, 272 (1971)]. From the salts of the test compounds of the formula (I) aqueous 10^-3 molar stock solutions were prepared, their pH was adjusted to 4 to 5. To the incubated enzyme preparations suitable amounts of the stock solution were added in order to obtain a series of test solutions containing a compound of the formula (I) in a concentration of 10^-5, 5× 10^-5, 10^-4, 5×10^-4 and 10^-3 moles/lit. […] The degree of inhibition (decrease of enzyme activity) was expressed in % of the control (enzyme preparation containing no inhibitor).

adenyl cyclase = conditions: Voorhees et al.; cited from earlier work

Structure (SMILES): Cn1c(=O)c2[nH]cnc2n(C)c1=O [Theophylline]
- influencing psoriasis (psoriasis): succeeded in influencing psoriasis
- inhibition of the function of phosphodiesterase (phosphodiesterase [1]): inhibit the function of phosphodiesterase

Structure (SMILES): CC[C@@]12C=C(C(=O)OC)n3c4c(c5ccc(OC)cc53)CCN(CCC1)[C@H]42 [Apovincine-KHSO4]
- Inhibition (%) obtained by 5 × 10^-6 moles/lit. concentrations of the test compounds (phosphodiesterase [2]): 36.6%
- Inhibition (%) obtained by 1 × 10^-4 moles/lit. concentrations of the test compounds (phosphodiesterase [3]): 71.8%
- Inhibition (%) obtained by 1 × 10^-5 moles/lit. concentrations of the test compounds (phosphodiesterase [3]): 49.0%
- Inhibition (%) obtained by 5 × 10^-5 moles/lit. concentrations of the test compounds (phosphodiesterase [3]): 59.4%

Structure (SMILES): CC[C@@]12C=C(C(=O)NN)n3c4c(c5ccccc53)CCN(CCC1)[C@H]42 [Apovincaminic acid-hydrazide, apovincaminic acid hydrazide]
- Inhibition (%) obtained by 1 × 10^-4 moles/lit. concentrations of the test compounds (phosphodiesterase [3]): 57.0%
- Inhibition (%) obtained by 5 × 10^-5 moles/lit. concentrations of the test compounds (phosphodiesterase [3]): 32.0%

Structure (SMILES): CC[C@@]12C=C(COC(C)=O)n3c4c(c5ccc(OC)cc53)CCN(CCC1)[C@H]42 [Tartrate salt of apovincinol-acetate]
- Inhibition (%) obtained by 5 × 10^-6 moles/lit. concentrations of the test compounds (phosphodiesterase [2]): 30.9%
- Inhibition (%) obtained by 1 × 10^-4 moles/lit. concentrations of the test compounds (phosphodiesterase [3]): 62.3%
- Inhibition (%) obtained by 1 × 10^-5 moles/lit. concentrations of the test compounds (phosphodiesterase [3]): 34.8%
- Inhibition (%) obtained by 5 × 10^-5 moles/lit. concentrations of the test compounds (phosphodiesterase [3]): 45.2%

Structure (SMILES): CC[C@@]12C=C(C(=O)OC)n3c4c(c5ccccc53)CCN(CCC1)[C@H]42 [Apovincamine]
- Inhibition (%) obtained by 5 × 10^-6 moles/lit. concentrations of the test compounds (phosphodiesterase [2]): 21.9%
- Inhibition (%) obtained by 1 × 10^-4 moles/lit. concentrations of the test compounds (phosphodiesterase [3]): 54.8%
- Inhibition (%) obtained by 1 × 10^-5 moles/lit. concentrations of the test compounds (phosphodiesterase [3]): 20.3%
- Inhibition (%) obtained by 5 × 10^-5 moles/lit. concentrations of the test compounds (phosphodiesterase [3]): 33.5%

Structure (SMILES): COc1ccc(Cc2nccc3cc(OC)c(OC)cc23)cc1OC [Papaverine, reference compound]
- influencing psoriasis (psoriasis): succeeded in influencing psoriasis
- inhibition of the function of phosphodiesterase (phosphodiesterase [1]): inhibit the function of phosphodiesterase
- Inhibition (%) obtained by 1 × 10^-4 moles/lit. concentrations of the test compounds (phosphodiesterase [3]): 56.4%
- Inhibition (%) obtained by 5 × 10^-5 moles/lit. concentrations of the test compounds (phosphodiesterase [3]): 36.4%

Structure (SMILES): CCOC(=O)C1=C[C@]2(CC)CCCN3CCc4c(n1c1cc(OC)ccc41)[C@@H]32 [Apovincinic acid ethyl ester tartrate]
- Inhibition (%) obtained by 1 × 10^-4 moles/lit. concentrations of the test compounds (phosphodiesterase [3]): 58.6%
- Inhibition (%) obtained by 1 × 10^-5 moles/lit. concentrations of the test compounds (phosphodiesterase [3]): 23.7%
- Inhibition (%) obtained by 5 × 10^-5 moles/lit. concentrations of the test compounds (phosphodiesterase [3]): 44.0%

Structure (SMILES): CC[C@@]12C=C(C(N)=O)n3c4c(c5ccccc53)CCN(CCC1)[C@H]42 [Apovincaminic acid amide]
- Inhibition (%) obtained by 5 × 10^-6 moles/lit. concentrations of the test compounds (phosphodiesterase [2]): 10.0%
- Inhibition (%) obtained by 1 × 10^-4 moles/lit. concentrations of the test compounds (phosphodiesterase [3]): 76.9%
- Inhibition (%) obtained by 1 × 10^-5 moles/lit. concentrations of the test compounds (phosphodiesterase [3]): 22.0%
- Inhibition (%) obtained by 5 × 10^-5 moles/lit. concentrations of the test compounds (phosphodiesterase [3]): 60.0%

Structure (SMILES): NC[C@H](O)c1ccc(O)c(O)c1 [norepinephrine]
- influencing psoriasis (psoriasis): succeeded in influencing psoriasis
- stimulation of the function of adenyl cyclase (adenyl cyclase): stimulate the function of adenyl cyclase

Structure (SMILES): CC[C@@]12C=C(C(=O)OC)n3c4c(c5ccc(OC)cc53)CCN(CCC1)[C@H]42 [Apovincine-tartrate]
- Inhibition (%) obtained by 5 × 10^-6 moles/lit. concentrations of the test compounds (phosphodiesterase [2]): 38.1%
- Inhibition (%) obtained by 1 × 10^-4 moles/lit. concentrations of the test compounds (phosphodiesterase [3]): 81.6%
- Inhibition (%) obtained by 1 × 10^-5 moles/lit. concentrations of the test compounds (phosphodiesterase [3]): 48.7%
- Inhibition (%) obtained by 5 × 10^-5 moles/lit. concentrations of the test compounds (phosphodiesterase [3]): 76.9%
